The supplement of paper PMC11208160
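Note: IS621 bridge recombinase in Escherichia coli cells against a fixed T5 target plasmid.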

Experiment: recombinant UMI read abundance after kanamycin selection (control-corrected) (log10(CPM+1)); higher = more efficient recombination; extreme values may be limits of the assay; sequences stand for … in AGTGCAGAGAAAATCGGCCAGTTTTCTCTGCCTGCAGTCCGCATGCCGTGGGACCCCTTGGGTTCTAACCTGTTGCCTAGATTTATGCAGCGGACTGCCTTTCTCCCAAAGTGATAAACCGG…AGGTTGGTTTCACT; site = the 11-nt donor
Outline: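 Each donor and donor-binding-loop pair was tracked by a 12-nt UMI on a plasmid carrying a promoterless kanamycin gene. With a second plasmid supplying a fixed target and T7-inducible IS621 bridge recombinase, the pool was plated in Escherichia coli on IPTG (0.07 mM) plus kanamycin or unselected. Sequencing of recombinant UMIs across the donor–target junction gave counts expressed as log10(CPM+1) after replicate averaging and control-derived scaling.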
For “CGTGGAACATGGACCGGTTTTCCCGGTAATCCGTATTTGTA (site CGTGGAACTCA)”, the “recombinant UMI read abundance (log10)” value was 0.0215.
In the case of “CGTGGAACATGGACCGGTTTTCCCGGTAATCCGTATTTGTA (site CGTGGAACTGA)”, the “recombinant UMI read abundance (log10)” value is reported as 0.
With “CGTGGAACATGGACCGGTTTTCCCGGTAATCCGTATTTGTA (site CGTGGAACTTA)” the “recombinant UMI read abundance (log10)” value was 2.24.
In the case of “CGTGTTACATGGACCGGTTTTCCCGGTAATCCGTATTTGAT (site CGTGTTACTAT)”, the “recombinant UMI read abundance (log10)” value is reported as 0.962.
With “CGTTAAACATGGACCGGTTTTCCCGGTAATCCGTATTTGAG (site CGTTAAACTCT)” the “recombinant UMI read abundance (log10)” value was 1.31.
For “CGTTAAACATGGACCGGTTTTCCCGGTAATCCGTATTTGAG (site CGTTACACTCT)”, the “recombinant UMI read abundance (log10)” value was 0.
For “CGTTAAACATGGACCGGTTTTCCCGGTAATCCGTATTTGAG (site CGTTAGACTCT)”, the “recombinant UMI read abundance (log10)” value was 0.00692.
For “CGTTAAACATGGACCGGTTTTCCCGGTAATCCGTATTTGAG (site CGTTATACTCT)”, the “recombinant UMI read abundance (log10)” value was 0.01.
For “CGTTAGACATGGACCGGTTTTCCCGGTAATCCGTATTTGAA (site CGTTAGACTAT)”, the “recombinant UMI read abundance (log10)” value was 0.0102.
In the case of “CGTTAGACATGGACCGGTTTTCCCGGTAATCCGTATTTGAA (site CGTTAGACTCT)”, the “recombinant UMI read abundance (log10)” value is reported as 0.00762.
With “CGTTAGACATGGACCGGTTTTCCCGGTAATCCGTATTTGAA (site CGTTAGACTGT)” the “recombinant UMI read abundance (log10)” value was 0.
With “CGTTAGACATGGACCGGTTTTCCCGGTAATCCGTATTTGAA (site CGTTAGACTTT)” the “recombinant UMI read abundance (log10)” value was 1.33.
For “CGTTAGGCATGGACCGGTTTTCCCGGTAATCCGTATTTGCT (site CGTTAGGCTAG)”, the “recombinant UMI read abundance (log10)” value was 0.924.
In the case of “CGTTAGGCATGGACCGGTTTTCCCGGTAATCCGTATTTGCT (site CGTTCGGCTAG)”, the “recombinant UMI read abundance (log10)” value is reported as 0.00474.
In the case of “CGTTAGGCATGGACCGGTTTTCCCGGTAATCCGTATTTGCT (site CGTTGGGCTAG)”, the “recombinant UMI read abundance (log10)” value is reported as 0.
For “CGTTAGGCATGGACCGGTTTTCCCGGTAATCCGTATTTGCT (site CGTTTGGCTAG)”, the “recombinant UMI read abundance (log10)” value was 0.00436.
With “CGTTCGGCATGGACCGGTTTTCCCGGTAATCCGTATTTGTC (site CGTTCGGCTGA)” the “recombinant UMI read abundance (log10)” value was 0.
For “CGTTGCACATGGACCGGTTTTCCCGGTAATCCGTATTTGGG (site CGTTGCACTCC)”, the “recombinant UMI read abundance (log10)” value was 0.0529.
With “CGTTGGACATGGACCGGTTTTCCCGGTAATCCGTATTTGAG (site CGTTAGACTCT)” the “recombinant UMI read abundance (log10)” value was 0.878.
In the case of “CGTTGGACATGGACCGGTTTTCCCGGTAATCCGTATTTGAG (site CGTTCGACTCT)”, the “recombinant UMI read abundance (log10)” value is reported as 0.022.
For “CGTTGGACATGGACCGGTTTTCCCGGTAATCCGTATTTGAG (site CGTTGGACTCT)”, the “recombinant UMI read abundance (log10)” value was 1.36.
With “CGTTGGACATGGACCGGTTTTCCCGGTAATCCGTATTTGAG (site CGTTTGACTCT)” the “recombinant UMI read abundance (log10)” value was 0.0464.
In the case of “CGTTGTCCATGGACCGGTTTTCCCGGTAATCCGTATTTGCT (site CGTTGTCCTAG)”, the “recombinant UMI read abundance (log10)” value is reported as 0.968.
In the case of “CGTTGTTCATGGACCGGTTTTCCCGGTAATCCGTATTTGTA (site CGTTGTTCTTA)”, the “recombinant UMI read abundance (log10)” value is reported as 2.19.
For “CGTTTGGCATGGACCGGTTTTCCCGGTAATCCGTATTTGAT (site CGTTTGGCTAA)”, the “recombinant UMI read abundance (log10)” value was 0.0113.
In the case of “CGTTTGGCATGGACCGGTTTTCCCGGTAATCCGTATTTGAT (site CGTTTGGCTAC)”, the “recombinant UMI read abundance (log10)” value is reported as 0.0714.
For “CGTTTGGCATGGACCGGTTTTCCCGGTAATCCGTATTTGAT (site CGTTTGGCTAG)”, the “recombinant UMI read abundance (log10)” value was 1.09.
For “CGTTTGGCATGGACCGGTTTTCCCGGTAATCCGTATTTGAT (site CGTTTGGCTAT)”, the “recombinant UMI read abundance (log10)” value was 2.22.
In the case of “CTAAACTCATGGACCGGTTTTCCCGGTAATCCGTATTTGAA (site CTAAACTCTTT)”, the “recombinant UMI read abundance (log10)” value is reported as 3.08.
In the case of “CTAACCCCATGGACCGGTTTTCCCGGTAATCCGTATTTGTA (site CTAACCCCTTA)”, the “recombinant UMI read abundance (log10)” value is reported as 1.67.
In the case of “CTAACCGCATGGACCGGTTTTCCCGGTAATCCGTATTTGTT (site CTAACCGCTAA)”, the “recombinant UMI read abundance (log10)” value is reported as 1.6.
In the case of “CTAACTTCATGGACCGGTTTTCCCGGTAATCCGTATTTGCA (site CTAACTTCTTG)”, the “recombinant UMI read abundance (log10)” value is reported as 2.08.
For “CTAAGGGCATGGACCGGTTTTCCCGGTAATCCGTATTTGAT (site CTAAGGGCTAT)”, the “recombinant UMI read abundance (log10)” value was 2.15.
For “CTAATATCATGGACCGGTTTTCCCGGTAATCCGTATTTGAC (site CTAATATCTGT)”, the “recombinant UMI read abundance (log10)” value was 2.69.
With “CTAATATCATGGACCGGTTTTCCCGGTAATCCGTATTTGAC (site CTACTATCTGT)” the “recombinant UMI read abundance (log10)” value was 0.
For “CTAATATCATGGACCGGTTTTCCCGGTAATCCGTATTTGAC (site CTAGTATCTGT)”, the “recombinant UMI read abundance (log10)” value was 2.29.
For “CTAATATCATGGACCGGTTTTCCCGGTAATCCGTATTTGAC (site CTATTATCTGT)”, the “recombinant UMI read abundance (log10)” value was 1.3.
For “CTAATATCATGGACCGGTTTTCCCGGTAATCCGTATTTGAG (site CTAATATCTCT)”, the “recombinant UMI read abundance (log10)” value was 3.07.
For “CTAATATCATGGACCGGTTTTCCCGGTAATCCGTATTTGAG (site CTAGTATCTGT)”, the “recombinant UMI read abundance (log10)” value was 0.
With “CTAATGACATGGACCGGTTTTCCCGGTAATCCGTATTTGAT (site CTAATGACTAT)” the “recombinant UMI read abundance (log10)” value was 1.69.
In the case of “CTAATGACATGGACCGGTTTTCCCGGTAATCCGTATTTGCA (site CTAATGACTTG)”, the “recombinant UMI read abundance (log10)” value is reported as 2.01.
With “CTACCAACATGGACCGGTTTTCCCGGTAATCCGTATTTGGA (site CTACAAACTTC)” the “recombinant UMI read abundance (log10)” value was 0.
With “CTACCAACATGGACCGGTTTTCCCGGTAATCCGTATTTGGA (site CTACCAACTTC)” the “recombinant UMI read abundance (log10)” value was 0.959.
In the case of “CTACCAACATGGACCGGTTTTCCCGGTAATCCGTATTTGGA (site CTACGAACTTC)”, the “recombinant UMI read abundance (log10)” value is reported as 0.
In the case of “CTACCAACATGGACCGGTTTTCCCGGTAATCCGTATTTGGA (site CTACTAACTTC)”, the “recombinant UMI read abundance (log10)” value is reported as 0.0192.
In the case of “CTACCATCATGGACCGGTTTTCCCGGTAATCCGTATTTGCT (site CGATCATCTAG)”, the “recombinant UMI read abundance (log10)” value is reported as 0.
With “CTACCATCATGGACCGGTTTTCCCGGTAATCCGTATTTGCT (site CTACCATCTAG)” the “recombinant UMI read abundance (log10)” value was 2.35.
For “CTACCCGCATGGACCGGTTTTCCCGGTAATCCGTATTTGCT (site CTACCCGCTAG)”, the “recombinant UMI read abundance (log10)” value was 1.43.
For “CTACGCACATGGACCGGTTTTCCCGGTAATCCGTATTTGAG (site CTACGCACTCT)”, the “recombinant UMI read abundance (log10)” value was 1.29.
In the case of “CTACGCTCATGGACCGGTTTTCCCGGTAATCCGTATTTGAT (site CTACGCTCTAT)”, the “recombinant UMI read abundance (log10)” value is reported as 2.86.
With “CTACTAACATGGACCGGTTTTCCCGGTAATCCGTATTTGTA (site CTACTAACTTA)” the “recombinant UMI read abundance (log10)” value was 2.03.
With “CTACTAACATGGACCGGTTTTCCCGGTAATCCGTATTTGTA (site CTACTAACTTC)” the “recombinant UMI read abundance (log10)” value was 0.53.
For “CTACTAACATGGACCGGTTTTCCCGGTAATCCGTATTTGTA (site CTACTAACTTG)”, the “recombinant UMI read abundance (log10)” value was 1.51.
With “CTACTAACATGGACCGGTTTTCCCGGTAATCCGTATTTGTA (site CTACTAACTTT)” the “recombinant UMI read abundance (log10)” value was 1.92.
With “CTACTCACATGGACCGGTTTTCCCGGTAATCCGTATTTGGG (site CTACTCACTCC)” the “recombinant UMI read abundance (log10)” value was 0.286.
For “CTACTCCCATGGACCGGTTTTCCCGGTAATCCGTATTTGGC (site CTACTCCCTGC)”, the “recombinant UMI read abundance (log10)” value was 1.59.
In the case of “CTACTCTCATGGACCGGTTTTCCCGGTAATCCGTATTTGTA (site CTACTCTCTTA)”, the “recombinant UMI read abundance (log10)” value is reported as 3.26.
With “CTACTCTCATGGACCGGTTTTCCCGGTAATCCGTATTTGTA (site CTCCTCTCTTA)” the “recombinant UMI read abundance (log10)” value was 1.19.
In the case of “CTACTCTCATGGACCGGTTTTCCCGGTAATCCGTATTTGTA (site CTGCTCTCTTA)”, the “recombinant UMI read abundance (log10)” value is reported as 1.32.
For “CTACTCTCATGGACCGGTTTTCCCGGTAATCCGTATTTGTA (site CTTCTCTCTTA)”, the “recombinant UMI read abundance (log10)” value was 1.42.
With “CTACTGTCATGGACCGGTTTTCCCGGTAATCCGTATTTGTA (site CTACTGTCTTA)” the “recombinant UMI read abundance (log10)” value was 3.13.
For “CTAGGTACATGGACCGGTTTTCCCGGTAATCCGTATTTGAC (site ATAGGTACTGT)”, the “recombinant UMI read abundance (log10)” value was 0.
For “CTAGGTACATGGACCGGTTTTCCCGGTAATCCGTATTTGAC (site CTAGGTACTGT)”, the “recombinant UMI read abundance (log10)” value was 2.1.
In the case of “CTAGGTACATGGACCGGTTTTCCCGGTAATCCGTATTTGAC (site GTAGGTACTGT)”, the “recombinant UMI read abundance (log10)” value is reported as 0.
For “CTAGGTACATGGACCGGTTTTCCCGGTAATCCGTATTTGAC (site TTAGGTACTGT)”, the “recombinant UMI read abundance (log10)” value was 0.
In the case of “CTAGTAACATGGACCGGTTTTCCCGGTAATCCGTATTTGAG (site CTAGTAACTCT)”, the “recombinant UMI read abundance (log10)” value is reported as 2.89.
For “CTAGTAACATGGACCGGTTTTCCCGGTAATCCGTATTTGAG (site CTAGTATCTGT)”, the “recombinant UMI read abundance (log10)” value was 0.
In the case of “CTAGTAACATGGACCGGTTTTCCCGGTAATCCGTATTTGTC (site CTAGTAACTGA)”, the “recombinant UMI read abundance (log10)” value is reported as 2.78.
With “CTAGTAACATGGACCGGTTTTCCCGGTAATCCGTATTTGTC (site CTAGTATCTGT)” the “recombinant UMI read abundance (log10)” value was 0.
For “CTAGTACCATGGACCGGTTTTCCCGGTAATCCGTATTTGAC (site CTAGTAACTGT)”, the “recombinant UMI read abundance (log10)” value was 0.
With “CTAGTACCATGGACCGGTTTTCCCGGTAATCCGTATTTGAC (site CTAGTACCTGT)” the “recombinant UMI read abundance (log10)” value was 0.
In the case of “CTAGTACCATGGACCGGTTTTCCCGGTAATCCGTATTTGAC (site CTAGTAGCTGT)”, the “recombinant UMI read abundance (log10)” value is reported as 0.415.
With “CTAGTACCATGGACCGGTTTTCCCGGTAATCCGTATTTGAC (site CTAGTATCTGT)” the “recombinant UMI read abundance (log10)” value was 2.88.
In the case of “CTAGTATCATGGACCGGTTTTCCCGGTAATCCGTATTTGAA (site CTAGTATCTAT)”, the “recombinant UMI read abundance (log10)” value is reported as 2.59.
For “CTAGTATCATGGACCGGTTTTCCCGGTAATCCGTATTTGAA (site CTAGTATCTCT)”, the “recombinant UMI read abundance (log10)” value was 2.4.
